From patent publication US5262417A, “Antibacterial quinolone compounds” (The Upjohn Company, priority 1991, dated 1993)

How the values were obtained:
Assay type in all cases: cell-based
[1] = test system: Klebsiella pneumoniae UC 57 (KP); test: Dip disk (disk-diffusion) assay, disks loaded with 0.05 ml; settings: 0.05 ml per disk; for zone of inhibition at 1 µg/mL / zone of inhibition at 0.1 µg/mL: Klebsiella pneumoniae, UC57, read-out: Growth Inhibition zone, KP; for zone of inhibition at 1 µg/mL: 1.0 mcg/ml; for zone of inhibition at 0.1 µg/mL / Growth Inhibition zone, KP: 0.1 mcg/ml
Procedure: The effectiveness of the subject compounds on bacteria were obtained by performing a dip disk assay. The antibacterial activity of the compounds was determined by the disk-diffusion method. […] They were then applied to the surface of microorganism-seeded agar assay trays, which contained the bacterial strain Pseudomonas aeruginosa UC 95 (PA), Escherichia coli UC 51 (EC), Klebsiella pneumoniae UC 57 (KP), or Staphylococcus aureus UC 80 (SA). The assay trays were incubated overnight under aerobic condition to allow for the growth of the organisms. Zones of growth inhibition due to the action of the antibiotic were then measured to the nearest millimeter. […]

[2] = test system: Pseudomonas aeruginosa UC 95 (PA); test: as above; settings: 0.05 ml per disk; for zone of inhibition at 1 µg/mL / zone of inhibition at 0.1 µg/mL: Pseudomonas aeruginosa, UC95, read-out: Growth Inhibition zone, PA; for zone of inhibition at 1 µg/mL: 1.0 mcg/ml; for zone of inhibition at 0.1 µg/mL / Growth Inhibition zone, PA: 0.1 mcg/ml
Procedure: (§1) The effectiveness of the subject compounds on bacteria were obtained by performing a dip disk assay. The antibacterial activity of the compounds was determined by the disk-diffusion method. Paper disks (12.7 mm) were loaded with 0.05 ml of drug solution prepared at a concentration of 0.1 mcg/ml; the disks were allowed to air dry. They were then applied to the surface of microorganism-seeded agar assay trays, which contained the bacterial strain Pseudomonas aeruginosa UC 95 (PA), Escherichia coli UC 51 (EC), Klebsiella pneumoniae UC 57 (KP), or Staphylococcus aureus UC 80 (SA). The assay trays were incubated overnight under aerobic condition to allow for the growth of the organisms. Zones of growth inhibition due to the action of the antibiotic were then measured to the nearest millimeter.
(§2) The effectiveness of additional compounds 5-9, (5-7 are Formula IAa compounds and 8 and 9 are Formula IAb compounds) on bacteria were obtained by performing a dip disk assay as described above. The antibacterial activity of the compounds was determined by the disk-diffusion method where the disks were loaded with 0.05 ml of drug solution prepared at a concentration of 1.0 mcg/ml; the disks were allowed to air dry.

[3] = test system: Staphylococcus aureus UC 80 (SA); test: as above; settings: 0.05 ml per disk; for zone of inhibition at 1 µg/mL / zone of inhibition at 0.1 µg/mL: Staphylococcus aureus, UC80, read-out: Growth Inhibition zone, SA; for zone of inhibition at 1 µg/mL: 1.0 mcg/ml; for zone of inhibition at 0.1 µg/mL / Growth Inhibition Zone, SA: 0.1 mcg/ml
Procedure: as §1, §2

[4] = test system: Escherichia coli UC 51 (EC); test: as above; settings: 0.05 ml per disk; for zone of inhibition at 1 µg/mL / zone of inhibition at 0.1 µg/mL: Escherichia coli, UC51, read-out: Growth Inhibition zone, EC; for zone of inhibition at 1 µg/mL: 1.0 mcg/ml; for zone of inhibition at 0.1 µg/mL / Growth Inhibition Zone, EC: 0.1 mcg/ml
Procedure: as §1, §2

[5] = test system: gram negative and positive; test: Compound 10 compared to ciprofloxacin, overall activity; settings: compared with ciprofloxacin
[6] = test system: Gram-positive and Gram-negative bacteria; test: Dipped disk assay, overall antibacterial activity (Formula IB)
Procedure: The effectiveness of the subject compounds on some bacteria were obtained by performing a dipped disk assay. The antibacterial activity of the compounds is determined by the disk-diffusion method. Paper disks (12.7 mm) were loaded with 0.10 ml of drug solution prepared at a concentration of 1 and 0.1 mcg/ml; the disks were allowed to air dry. They were then applied to the surface of microorganism-seeded agar assay trays, which contained the bacterial strain Pseudomonas aeruginosa UC 95 )PA), Escherichia coli UC 51 (EC) or Staphylococcus aureus UC 80 (SA). The assay trays were incubated overnight under aerobic condition to allow for the growth of the organisms. Zones of growth inhibition due to the action of the antibiotic were then measured to the nearest millimeter.

[7] = test system: Pseudomonas aeruginosa UC 95 (PA); test: Dipped disk (disk-diffusion) assay, disks loaded with 0.10 ml; settings: Conc 0.1 mg/ml, 0.10 ml per disk
Procedure: (§3) The effectiveness of the subject compounds on some bacteria were obtained by performing a dipped disk assay. The antibacterial activity of the compounds is determined by the disk-diffusion method. […] They were then applied to the surface of microorganism-seeded agar assay trays, which contained the bacterial strain Pseudomonas aeruginosa UC 95 )PA), Escherichia coli UC 51 (EC) or Staphylococcus aureus UC 80 (SA). The assay trays were incubated overnight under aerobic condition to allow for the growth of the organisms. Zones of growth inhibition due to the action of the antibiotic were then measured to the nearest millimeter.

[8] = test system: Staphylococcus aureus UC 80 (SA); test: as above; settings: 0.10 ml per disk
Procedure: as §3

[9] = test system: Escherichia coli UC 51 (EC); test: as above; settings: 0.10 ml per disk
Procedure: as §3

Work on `COC(=O)/C=C(\C(=O)OC)N1CCN(c2c(F)c(N)c3c(=O)c(C(=O)O)cn(C4CC4)c3c2F)CC1` [Compound 5, 2-[4-(5-amino-3-carboxy-1-cyclopropyl-6,8-difluoro-1,4-dihydro-4-oxo-7-quinolinyl)-1-piperazinyl]-2-butenedioic acid, (E)-1,4-dimethyl ester] yielded a zone of inhibition at 1 µg/mL [1] of 28 mm, a zone of inhibition at 1 µg/mL [2] of 27 mm and a zone of inhibition at 1 µg/mL [3] of 27 mm. For the same compound, the zone of inhibition at 1 µg/mL [4] was 24 mm.
For `COC(=O)/C=C(\C)NC1CCN(c2c(F)cc3c(=O)c(C(=O)O)cn(C4CC4)c3c2F)C1` (stereo not shown) [Compound 9, 2-[4-(3-carboxy-1-cyclopropyl-6,8-difluoro-1,4-dihydro-4-oxo-7-quinolinyl)-1-(3-aminopyrrolidinyl)]-3-butenoic acid-(E)-1-methyl ester], the zone of inhibition at 1 µg/mL [1] was 26 mm, the zone of inhibition at 1 µg/mL [2] was 32 mm and the zone of inhibition at 1 µg/mL [3] was 23 mm. For the same compound, the zone of inhibition at 1 µg/mL [4] was 24 mm.
With `COC(=O)/C=C(/NC1CCN(c2c(F)cc3c(=O)c(C(=O)O)cn(C4CC4)c3c2F)C1)C(=O)OC` (stereo not shown) [Compound 10, 2-[4-(3-carboxy-1-cyclopropyl-6,8-difluoro-1,4-dihydro-4-oxo-7-quinolinyl)-1-(3-aminopyrrolidinyl)]-2-butenedioic acid-(E)-1,4-dimethyl ester] the “gram negative and positive activity (in words)” value [5] was “gram negative and positive activity greatly increased over that of ciprofloxacin”.
`COC(=O)C=C(C(=O)OC)N1CCN(c2cc3c(cc2F)c(=O)c(C(=O)O)cn3C2CC2)CC1` [Compound 3, 2-[4-(1-Cyclopropyl-3-carboxy-6-fluoro-1,4-dihydro-4-oxo-7-quinolinyl)-1-piperazinyl]2-butenedioic acid, dimethyl ester] showed a zone of inhibition at 0.1 µg/mL [1] of 29 mm, a zone of inhibition at 0.1 µg/mL [2] of 36 mm and a zone of inhibition at 0.1 µg/mL [3] of 25 mm. The zone of inhibition at 0.1 µg/mL [4] was 29 mm.
`COC(=O)C/C=C(\C(=O)OC)N1CCN(c2c(F)cc3c(=O)c(C(=O)O)cn(C4CC4)c3c2F)CC1` [Compound 4, 2-[4-(3-carboxy-1-cyclopropyl-6,8-difluoro-1,4-dihydro-4-oxo-4-oxo-7-quinolinyl)-1-piperazineyl]-2-pentenedioic acid-(E)-1,5-dimethyl ester] was tested, and the zone of inhibition at 0.1 µg/mL [1] was 33 mm, the zone of inhibition at 0.1 µg/mL [2] was 33 mm and the zone of inhibition at 0.1 µg/mL [3] was 28 mm. It also gave a zone of inhibition at 0.1 µg/mL [4] of 27 mm.
“2-[4-(1-Ethyl-3-carboxy-6-fluoro-1,4-dihydro-4-oxo-7-quinolinyl)-1-piperizinyl]2-butanedioic acid, dimethyl ester [Compound 2]” was tested, and the “gram negative and positive activity (in words)” value [6] was “potent gram negative and positive activity as compared to the commercially available antibacterial Ciprofloxacin”, the “Growth Inhibition zone, PA” value [7] was 35 mm and the “Growth Inhibition Zone, SA” value ([8]; Conc 0.1 mg/ml) was 25 mm. The “Growth Inhibition Zone, SA” value ([8]; Conc 1 mg/ml) was 28 mm, the “Growth Inhibition zone, KP” value [1] was 25 millimeter and the “Growth Inhibition Zone, EC” value ([9]; Conc 0.1 mg/ml) was 30 mm. The “Growth Inhibition Zone, EC” value ([9]; Conc 1 mg/ml) was 30 mm, the “Growth Inhibition zone, PA” value [2] was 25 millimeter and the “Growth Inhibition Zone, SA” value [3] was 21 millimeter. For the same compound, the “Growth Inhibition Zone, EC” value [4] was 23 millimeter.
With `COC(=O)/C=C(\C(=O)OC)N1CCN(c2c(F)cc3c(=O)c(C(=O)O)cn(C4CCC4)c3c2F)CC1` [Compound 6, 2-[4-(3-carboxy-1-cyclobutyl-6,8-difluuoro-1,4-dihydro-4-oxo-7-quinolinyl)-1-piperazinyl]-2-butenedioic acid (E)-1,4-dimethyl ester] the zone of inhibition at 1 µg/mL [1] was 26 mm, the zone of inhibition at 1 µg/mL [2] was 16 mm and the zone of inhibition at 1 µg/mL [3] was 22 mm. The zone of inhibition at 1 µg/mL [4] was 24 mm.
Work on `COC(=O)/C=C(/NC1CCN(c2c(F)cc3c(=O)c(C(=O)O)cn(-c4ccc(F)cc4F)c3c2F)C1)C(=O)OC` (stereo not shown) [Compound 8, 2-[4-(3-carboxy-1-benzene(2,4-difluoro)-1,4-dihydro-4-oxo-7-quinolinyl)-1-(3-aminopyrrolidinyl)]-2-butenedioic acid, (E)-1,4-dimethyl ester] yielded a zone of inhibition at 1 µg/mL [1] of 34 mm, a zone of inhibition at 1 µg/mL [2] of 28 mm and a zone of inhibition at 1 µg/mL [3] of 32 mm. The zone of inhibition at 1 µg/mL [4] was 30 mm.
`COC(=O)/C=C(\C(=O)OC)N1CCN(c2c(F)cc3c(=O)c(C(=O)O)cn(-c4ccc(F)cc4)c3c2F)CC1` [Compound 7] gave a zone of inhibition at 1 µg/mL [1] of 26 mm, a zone of inhibition at 1 µg/mL [2] of 15 mm and a zone of inhibition at 1 µg/mL [3] of 22 mm. The zone of inhibition at 1 µg/mL [4] was 24 mm.
With “2-[4-(1-Cyclopropyl-3-carboxy-6,8-difluoro-1,4-dihydro-4-oxo-7-quinolinyl)-1-piperazinyl]2-butenedioic acid, dimethyl ester [Compound 1]” the “gram negative and positive activity (in words)” value [6] was “potent gram negative and positive activity as compared to the commercially available antibacterial Ciprofloxacin”, the “Growth Inhibition zone, PA” value [7] was 35 mm and the “Growth Inhibition Zone, SA” value ([8]; Conc 0.1 mg/ml) was 25 mm. For the same compound, the “Growth Inhibition Zone, SA” value ([8]; Conc 1 mg/ml) was 28 mm, the “Growth Inhibition zone, KP” value [1] was 31 millimeter and the “Growth Inhibition Zone, EC” value ([9]; Conc 0.1 mg/ml) was 30 mm. The “Growth Inhibition Zone, EC” value ([9]; Conc 1 mg/ml) was 35 mm, the “Growth Inhibition zone, PA” value [2] was 36 millimeter and the “Growth Inhibition Zone, SA” value [3] was 27 millimeter. The “Growth Inhibition Zone, EC” value [4] was 31 millimeter.
